SMILES strings stand for the structures.

One series has as its system PC3-puro. Nature of the series: Effect of APR-246 on cell viability in cancer cell lines. The format is cell-based. To be noted: Prostate adenocarcinoma PC3-puro, mean±SD. As for the experimental part: (§1) The therapeutic activity of the compound 2-(hydroxymethyl)-2-(methoxymethyl)-quinuclidin-3-one (herein also referred to as APR-246) in the treatment of various cancers has been shown by in vitro assays using various cancer cell lines, cf. Table 2, wherein the IC50 of APR-246 in various types of cancerous cells is shown.
(§2) In Table 2, the results are shown as mean±SD; the IC50 values are calculated as the average of the IC50 values in the individual experiments.

Another series has as its system PC3-175. The description is as above. To be noted: Prostate adenocarcinoma PC3-175, mean±SD. The format is cell-based. As for the experimental part: as §1, §2
In a further series the test system is SaOS-2-His273. The description is as above. Type of series: cell-based. The settings on record: Osteosarcoma SaOS-2-His273, mean±SD. As for the experimental part: as §1, §2
In the next series the test system is H1299-His175. The series is described as above. The settings on record: Non-small cell lung carcinoma H1299-His175, mean±SD. Type of series: cell-based. As for the experimental part: as §1, §2
The test system of another series is MDA-MB-231. The series is described as above. Type of series: cell-based. To be noted: Homo sapiens, Breast adenocarcinoma MDA-MB-231, mean±SD. As for the experimental part: as §1, §2
The subject of a further series is H1299. Described as above. Type of series: cell-based. To be noted: Homo sapiens, NCI-H1299, Non-small cell lung carcinoma H1299, mean±SD. As for the experimental part: as §1, §2
The test system of another series is U-2OS. Described as above. Type of series: cell-based. The settings on record: Homo sapiens, U2OS, Osteosarcoma U-2OS, mean±SD. As for the experimental part: as §1, §2
For the next series, the system named is SaOS-2. Described as above. The format is cell-based. The settings on record: Homo sapiens, Osteosarcoma SaOS-2, mean±SD. As for the experimental part:
as §1, §2

A further series relates to 22Rv1. Described as above. To be noted: Homo sapiens, Prostate carcinoma 22Rv1, mean±SD. Type of series: cell-based. As for the experimental part: as §1, §2
The subject of the next series is BT-474. The series is described as above. Type of series: cell-based. To be noted: Homo sapiens, Breast ductal carcinoma BT-474, mean±SD. As for the experimental part:
as §1, §2

The test system of another series is HT-29. Described as above. The format is cell-based. The settings on record: Homo sapiens, Colorectal adenocarcinoma HT-29, mean±SD. As for the experimental part:
as §1, §2

The subject of the next series is KBM3. The description is as above. The format is cell-based. To be noted: Acute Myelomonocytic Leukaemia KBM3, mean±SD. As for the experimental part:
as §1, §2

For another series, the system named is MCF-7. Described as above. Type of series: cell-based. To be noted: Homo sapiens, MCF7, Breast adenocarcinoma MCF-7, mean±SD. As for the experimental part: as §1, §2
Series [1] in a line: Stability studies of APR-246 in an aqueous system at different pH. Type of series: physicochemical. As for the experimental part: Several aqueous formulations of APR-246 and of the hydrochloric acid addition salt of APR-246 were prepared and tested for stability.
The stability increases with decreased pH. To establish a suitable pH for APR-246 with respect to stability, studies with the drug substance in different solutions at different pH were performed.
(§3) HPLC—Chromatography was performed on an Agilent 1100/1200 series HPLC system using a Purospher Star RP-18e, 5 μm (250×4.6) mm Column at 20° C. Sample temperature was set to 5° C. by a thermostat. Detection was accomplished by means of a UV/VIS DAD detector at 210 nm. The flow rate was set to 1.0 mL/min and the injection volume was 10 μL. The mobile phase used was a gradient of phosphate buffer (A) in acetonitrile (B): 0-5 min: 90% A, 5-20 min: 70% A, 20-35 min: 20% A, 35-45 min: 90% A. The calibration was obtained using pure APR-246 standard solutions freshly prepared prior to analyses. Data acquisition was performed electronically. The method has been validated.

Another series has as its system AML MV-4-11 cells. Nature of the series: Hollow fiber in vivo mouse model. To be noted: AML MV-4-11 cells in hollow fibers in mice; end of the experiment; by number. As for the experimental part:
Data is shown as mean±SEM (n=7-8).
Furthermore, in vivo experiments using the hollow fiber mouse model with 2-(hydroxymethyl)-2-(methoxymethyl)quinuclidin-3-one indicate that inventive compounds have a significant anti-leukemic effect. These experiments were performed using the hollow fiber in vivo mouse model (for a short description of the model, cf. the internet website http://dtp.nci.nih.gov/timeline/noflash/milestones/M13_hollow_fiber.htm).

Series [2] in a line: Long term stability studies of APR-246 in aqueous system. The format is physicochemical. As for the experimental part:
as §3, with “APR-246 stock solutions were manufactured at a concentration of about 150 mg/mL at pH 3.9. The finished product consisted of 21.5-22.0 mL of drug product aseptically filled into presterilized 50 mL glass vials. The manufacturing was in compliance with Good Manufacturing Practices regulations. […] HPLC—Chromatography” for “HPLC—Chromatography”

Series [3] is described as follows: HPLC-UV before and after autoclaving of APR-246 solution. The format is physicochemical. The settings on record: autoclaving at 121° C. As for the experimental part: as §3, with “validated. The APR-246 drug product was a sterile concentrate for solution for infusion. The solution was sterilised by filtration according to Ph Eur standard method and aseptically filled in vials.” for “validated.”

The nature of series [4]: Solubility and pH of APR-246 in water solutions. The format is physicochemical.
Series [5] is described as follows: Infusion bag compatibility study. The format is physicochemical. As for the experimental part: as §3, with “validated. This example summarizes the results of a compatibility study of the APR-246 drug product (150 mg/mL stock solution) in six infusion bags, to confirm physical and chemical stability of the drug product in the NaCl solution and compatibility with infusion bags and tubing device material. The drug product should be diluted with sterile 0.9% NaCl solution for infusion to a total volume of 500 ml before administration. The duration of the study covers a period beyond finalisation of infusion to the patient. The study was designed for a worst case lowest dose of 0.15 mg/mL and for a worst case highest dose of 24 mg/mL. […]” for “validated.”

As a reminder, the IC50 is the midpoint of a concentration-inhibition curve. Take `COCC1(CO)C(=O)C2CCN1CC2` (stereo not shown) [APR-246, 2-(hydroxymethyl)-2-(methoxymethyl)quinuclidin-3-one]: the half-inhibitory concentration (IC50) was 27 ± 3 µM in the series on PC3-puro; 23 ± 7 µM in the series on PC3-175; 14 ± 3 µM in the series on SaOS-2-His273; 14 ± 8 µM with H1299-His175; 18 ± 5 µM with MDA-MB-231; 16 ± 7 µM with H1299. Also, the IC50 with U-2OS is 15 ± 4 µM; in the series on SaOS-2 it was 27 ± 5 µM; in the series with 22Rv1, 10 ± 0.6 µM; in the series with BT-474, 3 ± 2 µM; with HT-29 it was 25 ± 5 µM; in the series with KBM3, 7 ± 1 µM. The IC50 in the series on MCF-7 was 15 ± 1 µM. For the same compound, the “stability of formulations with pH above 6” value in series [1] (pH above 6, model systems of Table 3) was “stability problems”. The “degradation in aqueous solutions” value in series [1] (room temperature and lower temperatures, regardless of the concentration profile) is listed as “suffered from degradation”. In the series with AML MV-4-11 cells, the “net growth of leukemic cells” value is reported as “about −25%”. In addition, the “long term stability in the inventive formulation” value in series [2] (formulated for clinical use, about 150 mg/mL, pH 3.9) is reported as “stable”. Also, the “expected degradation on storage” value in series [2] (over a period of two years, stored at 2-8° C.) was “no significant degradation”. Besides, the “degradation on autoclaving the solution in the final container” value in series [3] is on record as “degradation was too pronounced”. For the same compound, the “solubility in water solutions” value in series [4] is reported as “readily soluble”. Moreover, the “stability in infusion bag over the range of the study” value in [5] (high concentration) and in [5] (low concentration) was “satisfactory stability” each time.

Values taken from patent US9061016B2, “Aqueous solution comprising 3-quinuclidinones for the treatment hyperproliferative, autoimmune and heart disease” (APREA AB, priority 2010, dated 2015).
